The values below come from ChEMBL document CHEMBL5360653, “Marine Alkaloid Lepadins E and H Induce Ferroptosis for Cancer Chemotherapy” (J Med Chem, 2023).

For data set [1], the system named is B16-F10. Put plainly: Cytotoxicity against mouse B16-F10 cells incubated for 72 hrs by MTT assay. Format: functional, cell-based. The following applies: B16-F10, 72 h.
The subject of data set [2] is HeLa. Put plainly: Induction of apoptosis in human HeLa cells assessed as early apoptotic cells incubated at 8 uM for 24 hrs measured by annexin V-PI staining based FITC analysis (reference value: 3.59%). The class given is functional.
The test system of data set [3] is HeLa. The data set is described as follows: Induction of apoptosis in human HeLa cells assessed as viable cells preincubated with PFTalpha followed by compound addition at 10 uM for 24 hrs measured by annexin V-PI staining based FITC analysis (reference value: 94.2%). The class given is functional. Conditions: read-out: Activity.
Data set [4] deals with HeLa. The data set is described as follows: Induction of apoptosis in human HeLa cells assessed as early apoptotic cells incubated at 4 uM for 24 hrs measured by annexin V-PI staining based FITC analysis (reference value: 3.59%). The class given is functional.
The test system of data set [5] is HeLa. The data set is described as follows: Induction of ferroptosis in human HeLa cells assessed as reduction of mitochondrion volume measured at 6 uM for 24 hrs by transmission electron microscopic analysis. Format: functional, cell-based.
The test system of data set [6] is HeLa. Put plainly: Induction of ferroptosis in human HeLa cells assessed as increase of ACSL4 level measured at 4 to 10 uM for 24 hrs by Western blotting analysis. Format: functional, cell-based. Conditions: dose 4-10 µM. On the technique in general: Immunoblotting shows a protein as a band on a membrane.
For data set [7], the system named is HeLa. Put plainly: Induction of apoptosis in human HeLa cells assessed as late apoptotic cells incubated at 4 uM for 24 hrs measured by annexin V-PI staining based FITC analysis (reference value: 1.81%). The class given is functional.
For data set [8], the system named is HeLa. Put plainly: Induction of ferroptosis in human HeLa cells assessed as increase in density of mitochondrial membrane measured at 6 uM for 24 hrs by transmission electron microscopic analysis. The class given is functional, cell-based.
Data set [9] relates to HeLa. Put plainly: Induction of apoptosis in human HeLa cells assessed as necrotic cells incubated at 10 uM for 24 hrs measured by annexin V-PI staining based FITC analysis (reference value: 0.79%). Format: functional.
The test system of data set [10] is HeLa. Put plainly: Induction of apoptosis in human HeLa cells assessed as late apoptotic cells incubated at 8 uM for 24 hrs measured by annexin V-PI staining based FITC analysis (reference value: 1.81%). The class given is functional.
The subject of data set [11] is B16-F10. Put plainly: Induction of ferroptosis in mouse B16-F10 cells assessed as increase in ACSL4 level measured at 4 to 10 uM by Western blotting analysis. The class given is functional, cell-based. The following applies: dose 4-10 µM.
Data set [12] deals with B16-F10. The data set is described as follows: Antitumor activity against mouse B16-F10 cells allografted in immunocompetent C57BL/6J mouse assessed as reduction of tumor growth administered at 30 mg/kg, ip daily for 14 days (reference value: 1500 mm^3). The class given is functional. The following applies: time 14 day.
For data set [13], the system named is B16-F10. The data set is described as follows: Induction of ferroptosis in mouse B16-F10 cells assessed as cell viability in presence of DFO at 10 uM. Format: functional, cell-based.
Data set [14] is described as follows: Toxicity in immunocompetent C57BL/6J mouse allografted with B16-F10 cells assessed as change of organ index in heart administered at 30 mg/kg, ip daily for 14 days by hematoxylin and eosin staining analysis. The class given is organism-based. The following applies: in vivo, 336 h, time 14 day.
For data set [15], the system named is HeLa. Put plainly: Induction of ferroptosis in human HeLa cells assessed as disappearance of mitochondrial cristae measured at 6 uM for 24 hrs by transmission electron microscopic analysis. The class given is functional, cell-based.
The test system of data set [16] is HeLa. Put plainly: Induction of apoptosis in human HeLa cells assessed as viable cells incubated at 10 uM for 24 hrs measured by annexin V-PI staining based FITC analysis (reference value: 94.2%). Conditions: read-out: Activity. The class given is functional.
Data set [17] is described as follows: Toxicity in immunocompetent C57BL/6J mouse allografted with B16-F10 cells assessed as tissue damage in lungs administered at 30 mg/kg, ip daily for 14 days by hematoxylin and eosin staining analysis. The following applies: in vivo, 336 h, time 14 day. The class given is organism-based.
Data set [18] has as its system HeLa. The data set is described as follows: Induction of apoptosis in human HeLa cells assessed as early apoptotic cells preincubated with PFTalpha followed by compound addition at 10 uM for 24 hrs measured by annexin V-PI staining based FITC analysis (reference value: 2.72%). Format: functional.
Data set [19] has as its system B16-F10. The data set is described as follows: Induction of ferroptosis in mouse B16-F10 cells assessed as downregulation of GPX4 level measured at 4 to 10 uM by Western blotting analysis. Format: functional, cell-based. Conditions: dose 4-10 µM.
Data set [20] is described as follows: Toxicity in immunocompetent C57BL/6J mouse allografted with B16-F10 cells assessed as tissue damage in spleen administered at 30 mg/kg, ip daily for 14 days by hematoxylin and eosin staining analysis. Format: organism-based. The following applies: in vivo, 336 h, time 14 day.
A short description of data set [21]: Toxicity in immunocompetent C57BL/6J mouse allografted with B16-F10 cells assessed as tissue damage in liver administered at 30 mg/kg, ip daily for 14 days by hematoxylin and eosin staining analysis. The class given is organism-based. Conditions: in vivo, 336 h, time 14 day.
Data set [22] concerns HeLa. Put plainly: Induction of ferroptosis in human HeLa cells assessed as downregulation of SLC7A11 level measured at 4 to 10 uM for 24 hrs by Western blotting analysis. Format: functional, cell-based. The following applies: dose 4-10 µM.
The nature of data set [23]: Toxicity in immunocompetent C57BL/6J mouse allografted with B16-F10 cells assessed as tissue damage in kidney administered at 30 mg/kg, ip daily for 14 days by hematoxylin and eosin staining analysis. Format: organism-based. The following applies: in vivo, 336 h, time 14 day.
Data set [24] in a line: Toxicity in immunocompetent C57BL/6J mouse allografted with B16-F10 cells assessed as change of organ index in liver administered at 30 mg/kg, ip daily for 14 days by hematoxylin and eosin staining analysis. The following applies: in vivo, 336 h, time 14 day. The class given is organism-based.
For data set [25], the system named is HeLa. The data set is described as follows: Induction of apoptosis in human HeLa cells assessed as early apoptotic cells incubated at 10 uM for 24 hrs measured by annexin V-PI staining based FITC analysis (reference value: 2.72%). Format: functional.
The test system of data set [26] is B16-F10. The data set is described as follows: Induction of ferroptosis in mouse B16-F10 cells assessed as downregulation of SLC7A11 level measured at 4 to 10 uM by Western blotting analysis. The class given is functional, cell-based. Conditions: dose 4-10 µM.
Data set [27] relates to HeLa. The data set is described as follows: Induction of apoptosis in human HeLa cells assessed as necrotic cells incubated at 8 uM for 24 hrs measured by annexin V-PI staining based FITC analysis (reference value: 0.70%). Format: functional.
Data set [28] relates to HeLa. Put plainly: Induction of apoptosis in human HeLa cells assessed as early apoptotic cells incubated at 10 uM for 24 hrs measured by annexin V-PI staining based FITC analysis (reference value: 3.94%). Format: functional.
The test system of data set [29] is HeLa. The data set is described as follows: Induction of ferroptosis in human HeLa cells assessed as decrease in cellular GSH level measured at 6 uM for 24 hrs by transmission electron microscopic analysis. The class given is functional, cell-based.
Data set [30] has as its system HeLa. Put plainly: Induction of apoptosis in human HeLa cells assessed as late apoptotic cells incubated at 10 uM for 24 hrs measured by annexin V-PI staining based FITC analysis (reference value: 3.45%). Format: functional.
For data set [31], the system named is HeLa. Put plainly: Induction of apoptosis in human HeLa cells assessed as necrotic cells preincubated with PFTalpha followed by compound addition at 10 uM for 24 hrs measured by annexin V-PI staining based FITC analysis (reference value: 1.6%). Format: functional.
The subject of data set [32] is HeLa. The data set is described as follows: Induction of apoptosis in human HeLa cells assessed as necrotic cells incubated at 8 uM for 24 hrs measured by annexin V-PI staining based FITC analysis (reference value: 0.58%). The class given is functional.
The subject of data set [33] is HeLa. The data set is described as follows: Induction of apoptosis in human HeLa cells assessed as early apoptotic cells incubated at 4 uM for 24 hrs measured by annexin V-PI staining based FITC analysis (reference value: 3.94%). Format: functional.
Data set [34] concerns HeLa. The data set is described as follows: Induction of ROS generation in human HeLa cells assessed as increase in ROS level at 10 uM incubated for 1 hrs (reference value: 37.8%). Format: functional.
Data set [35] has as its system HeLa. The data set is described as follows: Induction of apoptosis in human HeLa cells assessed as viable cells incubated at 10 uM for 24 hrs measured by annexin V-PI staining based FITC analysis (reference value: 91.6%). The following applies: read-out: Activity. The class given is functional.

SMILES strings stand for the structures. Activity calls are given as the source filed them. The calls are words filed in the database; no cut-off is given here. Where only a bound is given, the exact number is not on record here.

One may read the IC50 as the concentration that inhibits the measured activity by half. Higher therefore signals weaker potency. In the data set with B16-F10 [1], `CCC/C=C/C=C/C(=O)O[C@@H]1C[C@H]2[C@@H](CCCC[C@H](O)CCC)CCC[C@H]2N[C@H]1C` yielded a concentration for half-maximal inhibition (IC50) of 3.14 µM. For the same molecule, the Activity is on record as 21.1% with HeLa [2]; 4.56% in the data set with HeLa [4]; 2.52% in the data set on HeLa [7]; 2.34% in the data set on HeLa [9]; 2.28% in the data set with HeLa [10]; less than 500 mm3 in the data set with B16-F10 [12]. The Activity result in [14] is “Non-Toxic”; in data set [17], “Non-Toxic”; in the data set on HeLa [18] it was 30.5%; in data set [20] it was “Non-Toxic”; in data set [21], “Non-Toxic”; in data set [23], “Non-Toxic”. Moreover, the figures for the Activity entry (in data set [24]; with HeLa [25]; in the data set with HeLa [27]) were “Non-Toxic”, 31.8% and 0.5%, respectively. The viability at 10 µM in the data set with HeLa [3] was determined as 46%; with HeLa [16] it was 20.6%. Further, the outcome with HeLa [5], in the data set with HeLa [6], in the data set with HeLa [8], in the data set on B16-F10 [11], with B16-F10 [13] and in the data set on HeLa [15] was Active. Also, the result in the data set on B16-F10 [19], with HeLa [22] and in the data set with B16-F10 [26] was Active.

For `CCCCC/C=C/C(=O)O[C@@H]1C[C@H]2[C@@H](CCCC[C@H](O)CCC)CCC[C@H]2N[C@H]1C`, the Activity is 22.7% with HeLa [28]; 31.4% in the data set with HeLa [30]; 4.34% in the data set on HeLa [31]; 3.09% with HeLa [32]; 5.32% in the data set with HeLa [33]; 62.3% in the data set with HeLa [34]. Moreover, the result with HeLa [29] was Active. The viability at 10 µM in the data set on HeLa [35] was 28%.
